According to US20220128542A1, “TREATMENT EFFICIENCY EVALUATION” (TX MEDIC AB, priority 2019, published 2022):

Test system: brain of rats subjected to severe traumatic brain injury (sTBI)
Test: Ingenuity pathway analysis of differentially regulated genes after sTBI (canonical pathways, diseases and molecular functions; Example 4)
Design: species or system rat
Method: Pathway analysis of the differentially regulated genes was carried out using the Ingenuity pathway analysis package. The analysis was performed with special reference to pathways and molecular processes and diseases associated with neurodegenerative disease, including dementia, Alzheimer's disease, ALS, TBI and stroke, and with scarring and fibrosis, including glaucoma and normal pressure hydrocephalus (NPH) after subarachnoid haemorrhage.

[1] = TBI + 1 mg/kg LMW-DS, 2 days after TBI
[2] = TBI + 1 mg/kg LMW-DS, 7 days after TBI, relative to control
[3] = TBI + 1 mg/kg LMW-DS, 7 days after TBI
[4] = TBI + 5 mg/kg LMW-DS, 2 days after TBI

sodium salt of dextran sulfate [LMW-DS]
Effect on diseases or functions annotation: Apoptosis of muscle cells [1]: Activated
Effect on diseases or functions annotation: Behavior [1]: Activated
Effect on diseases or functions annotation: Binding of tumor cell lines [1]: Activated
Effect on diseases or functions annotation: Carcinoma [1]: Inhibited
Effect on diseases or functions annotation: Cell death [1]: Inhibited
Effect on diseases or functions annotation: Cell death of blood cells [1]: Activated
Effect on diseases or functions annotation: Cell death of immune cells [1]: Activated
Effect on diseases or functions annotation: Cell movement [1]: Activated
Effect on diseases or functions annotation: Cell movement of muscle cells [1]: Inhibited
Effect on diseases or functions annotation: Cell movement of vascular smooth muscle cells [1]: Inhibited
Effect on diseases or functions annotation: Cell proliferation of T lymphocytes [1]: Inhibited
Effect on diseases or functions annotation: Cellular homeostasis [1]: Activated
Effect on diseases or functions annotation: Development of connective tissue cells [1]: Inhibited
Effect on diseases or functions annotation: Differentiation of bone cells [1]: Inhibited
Effect on diseases or functions annotation: Differentiation of connective tissue cells [1]: Activated
Effect on diseases or functions annotation: Differentiation of hematopoietic progenitor cells [1]: Activated
Effect on diseases or functions annotation: Differentiation of osteoclasts [1]: Inhibited
Effect on diseases or functions annotation: Digestive organ tumor [1]: Inhibited
Effect on diseases or functions annotation: Experimentally-induced arthritis [1]: Inhibited
Effect on diseases or functions annotation: Extracranial solid tumor [1]: Activated
Effect on diseases or functions annotation: Genital tumor [1]: Activated
Effect on diseases or functions annotation: Incidence of tumor [1]: Inhibited
Effect on diseases or functions annotation: Inflammation of absolute anatomical region [1]: Inhibited
Effect on diseases or functions annotation: Inflammation of body cavity [1]: Inhibited
Effect on diseases or functions annotation: Inflammation of joint [1]: Inhibited
Effect on diseases or functions annotation: Inflammation of organ [1]: Inhibited
Effect on diseases or functions annotation: Inflammatory response [1]: Activated
Effect on diseases or functions annotation: Interaction of mononuclear leukocytes [1]: Activated
Effect on diseases or functions annotation: Leukocyte migration [1]: Activated
Effect on diseases or functions annotation: Leukopoiesis [1]: Activated
Effect on diseases or functions annotation: Lymphopoiesis [1]: Activated
Effect on diseases or functions annotation: Malignant solid tumor [1]: Inhibited
Effect on diseases or functions annotation: Migration of cells [1]: Activated
Effect on diseases or functions annotation: Necrosis [1]: Inhibited
Effect on diseases or functions annotation: Non-hematologic malignant neoplasm [1]: Inhibited
Effect on diseases or functions annotation: Pelvic tumor [1]: Inhibited
Effect on diseases or functions annotation: Proliferation of blood cells [1]: Inhibited
Effect on diseases or functions annotation: Proliferation of lymphatic system cells [1]: Inhibited
Effect on diseases or functions annotation: Proliferation of lymphocytes [1]: Inhibited
Effect on diseases or functions annotation: Quantity of blood cells [1]: Inhibited
Effect on diseases or functions annotation: Quantity of bone [1]: Inhibited
Effect on diseases or functions annotation: Quantity of cells [1]: Inhibited
Effect on diseases or functions annotation: Quantity of connective tissue cells [1]: Activated
Effect on diseases or functions annotation: Quantity of leukocytes [1]: Inhibited
Effect on diseases or functions annotation: Quantity of lymphatic system cells [1]: Inhibited
Effect on diseases or functions annotation: Quantity of phagocytes [1]: Inhibited
Effect on diseases or functions annotation: Rheumatic Disease [1]: Inhibited
Effect on diseases or functions annotation: Solid tumor [1]: Inhibited
Effect on diseases or functions annotation: Survival of organism [1]: Inhibited
Effect on diseases or functions annotation: Synthesis of hormone [1]: Activated
Effect on diseases or functions annotation: Thrombus [1]: Activated
Effect on diseases or functions annotation: Transport of molecule [1]: Activated
z score, Ingenuity canonical pathway: Adrenomedullin signaling pathway [2]: −1
z score, Ingenuity canonical pathway: ERK5 Signaling [2]: −2
z score, Ingenuity canonical pathway: Endothelin-1 Signaling [2]: 1.342
z score, Ingenuity canonical pathway: G Beta Gamma Signaling [2]: 1
z score, Ingenuity canonical pathway: NF-κB Signaling [2]: −0.447
z score, Ingenuity canonical pathway: Opioid Signaling Pathway [2]: −0.447
z score, Ingenuity canonical pathway: Role of NFAT in Regulation of the Immune Response [2]: 0.816
z score, Ingenuity canonical pathway: Synaptic Long Term Depression [2]: 1.342
Diseases or functions annotation: Abdominal cancer [3]: Inhibited
Diseases or functions annotation: Abdominal carcinoma [3]: Inhibited
Diseases or functions annotation: Cell movement [3]: Inhibited
Diseases or functions annotation: Cell viability [3]: Inhibited
Diseases or functions annotation: Concentration of hormone [3]: Inhibited
Diseases or functions annotation: Development of connective tissue cells [3]: Inhibited
Diseases or functions annotation: Development of malignant tumor [3]: Inhibited
Diseases or functions annotation: Developmental process of synapse [3]: Inhibited
Diseases or functions annotation: Differentiation of bone cells [3]: Inhibited
Diseases or functions annotation: Differentiation of connective tissue cells [3]: Inhibited
Diseases or functions annotation: Digestive organ tumor [3]: Inhibited
Diseases or functions annotation: Digestive system cancer [3]: Inhibited
Diseases or functions annotation: Epithelial neoplasm [3]: Inhibited
Diseases or functions annotation: Formation of plasma membrane [3]: Inhibited
Diseases or functions annotation: Frequency of tumor [3]: Inhibited
Diseases or functions annotation: Gastrointestinal tumor [3]: Inhibited
Diseases or functions annotation: Hematologic cancer [3]: Inhibited
Diseases or functions annotation: Hematopoietic neoplasm [3]: Inhibited
Diseases or functions annotation: Incidence of tumor [3]: Inhibited
Diseases or functions annotation: Large intestine neoplasm [3]: Inhibited
Diseases or functions annotation: Liver tumor [3]: Inhibited
Diseases or functions annotation: Malignant genitourinary solid tumor [3]: Inhibited
Diseases or functions annotation: Metabolism of hormone [3]: Inhibited
Diseases or functions annotation: Pelvic tumor [3]: Inhibited
Diseases or functions annotation: Quantity of Ca^2+ [3]: Inhibited
Diseases or functions annotation: Quantity of carbohydrate [3]: Activated
Diseases or functions annotation: Quantity of metal [3]: Activated
Diseases or functions annotation: Synthesis of lipid [3]: Activated
Diseases or functions annotation: Tumorigenesis of epithelial neoplasm [3]: Inhibited
Diseases or functions annotation: Tumorigenesis of tissue [3]: Inhibited
Diseases or functions annotation: Vaso-occlusion [3]: Activated
Diseases or functions annotation: Weight gain [3]: Activated
Ingenuity canonical pathway: Adrenomedullin signaling pathway [3]: Inhibited
Ingenuity canonical pathway: ERK5 Signaling [3]: Inhibited
Ingenuity canonical pathway: Endothelin-1 Signaling [3]: Activated
Ingenuity canonical pathway: G Beta Gamma Signaling [3]: Activated
Ingenuity canonical pathway: NF-κB Signaling [3]: Inhibited
Ingenuity canonical pathway: Opioid Signaling Pathway [3]: Inhibited
Ingenuity canonical pathway: Role of NFAT in Regulation of the Immune Response [3]: Activated
Ingenuity canonical pathway: Synaptic Long Term Depression [3]: Activated
Effect on diseases or functions annotation: Abdominal cancer [4]: Inhibited
Effect on diseases or functions annotation: Abdominal carcinoma [4]: Inhibited
Effect on diseases or functions annotation: Abdominal neoplasm [4]: Inhibited
Effect on diseases or functions annotation: Apoptosis [4]: Activated
Effect on diseases or functions annotation: Behavior [4]: Inhibited
Effect on diseases or functions annotation: Carcinoma [4]: Inhibited
Effect on diseases or functions annotation: Cell death [4]: Activated
Effect on diseases or functions annotation: Cell death of antigen presenting cells [4]: Inhibited
Effect on diseases or functions annotation: Cell death of immune cells [4]: Inhibited
Effect on diseases or functions annotation: Cell death of tumor cell lines [4]: Inhibited
Effect on diseases or functions annotation: Cell movement [4]: Inhibited
Effect on diseases or functions annotation: Cell movement of tumor cell lines [4]: Inhibited
Effect on diseases or functions annotation: Cell proliferation of leukocyte cell lines [4]: Inhibited
Effect on diseases or functions annotation: Cellular homeostasis [4]: Inhibited
Effect on diseases or functions annotation: Chemotaxis [4]: Inhibited
Effect on diseases or functions annotation: Concentration of prostaglandin [4]: Inhibited
Effect on diseases or functions annotation: Development of vasculature [4]: Inhibited
Effect on diseases or functions annotation: Digestive organ tumor [4]: Inhibited
Effect on diseases or functions annotation: Digestive system cancer [4]: Inhibited
Effect on diseases or functions annotation: Edema [4]: Activated
Effect on diseases or functions annotation: Epithelial neoplasm [4]: Inhibited
Effect on diseases or functions annotation: Extracranial solid tumor [4]: Inhibited
Effect on diseases or functions annotation: Feeding [4]: Inhibited
Effect on diseases or functions annotation: Growth of tumor [4]: Inhibited
Effect on diseases or functions annotation: Hematologic cancer [4]: Inhibited
Effect on diseases or functions annotation: Incidence of tumor [4]: Inhibited
Effect on diseases or functions annotation: Leukocyte migration [4]: Inhibited
Effect on diseases or functions annotation: Leukopoiesis [4]: Inhibited
Effect on diseases or functions annotation: Locomotion [4]: Inhibited
Effect on diseases or functions annotation: Lymphocyte homeostasis [4]: Inhibited
Effect on diseases or functions annotation: Lymphocytic cancer [4]: Inhibited
Effect on diseases or functions annotation: Lymphocytic neoplasm [4]: Inhibited
Effect on diseases or functions annotation: Lymphopoiesis [4]: Inhibited
Effect on diseases or functions annotation: Lymphoproliferative disorder [4]: Inhibited
Effect on diseases or functions annotation: Malignant solid tumor [4]: Inhibited
Effect on diseases or functions annotation: Metabolism of hormone [4]: Inhibited
Effect on diseases or functions annotation: Migration of cells [4]: Inhibited
Effect on diseases or functions annotation: Necrosis [4]: Inhibited
Effect on diseases or functions annotation: Neoplasia of leukocytes [4]: Inhibited
Effect on diseases or functions annotation: Non-melanoma solid tumor [4]: Inhibited
Effect on diseases or functions annotation: Proliferation of hematopoietic progenitor cells [4]: Inhibited
Effect on diseases or functions annotation: Quantity of cells [4]: Inhibited
Effect on diseases or functions annotation: Quantity of epithelial tissue [4]: Inhibited
Effect on diseases or functions annotation: Quantity of neuroglia [4]: Inhibited
